Inconclusive results and toxic doses are left out. Rule as the data show it: active = T/C of 150% or more; inactive = T/C below 125%.
System: L1210 leukemia ip in BDF1 mice, survival T/C
Test: NCI In Vivo Anticancer Drug Screen. Data for tumor model L1210 Leukemia (intraperitoneal) in B6D2F1 (BDF1) mice
Conditions: endpoint: mean survival time, higher = longer survival
How it was run: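 Transplanted-tumor mice were given test agent; controls received vehicle only. Survival readings from the two groups were divided (treated over control).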

[1] = dose: 100.0 mg/kg/injection, schedule: Q04DX002 (ip), vehicle: saline with Tween-80
[2] = dose: 200.0 mg/kg/injection, schedule: Q04DX002 (ip), vehicle: saline with Tween-80
[3] = dose: 400.0 mg/kg/injection, schedule: Q04DX002 (ip), vehicle: saline with Tween-80
[4] = dose: 100.0 mg/kg/injection, schedule: Q01DX001 (ip), vehicle: saline
[5] = dose: 200.0 mg/kg/injection, schedule: Q01DX001 (ip), vehicle: saline
[6] = dose: 400.0 mg/kg/injection, schedule: Q01DX001 (ip), vehicle: saline
[7] = dose: 50.0 mg/kg/injection, schedule: Q01DX009 (ip), vehicle: saline with Tween-80
[8] = dose: 100.0 mg/kg/injection, schedule: Q01DX009 (ip), vehicle: saline with Tween-80
[9] = dose: 100.0 mg/kg/injection, schedule: Q04DX003 (ip), vehicle: saline with Tween-80
[10] = dose: 200.0 mg/kg/injection, schedule: Q01DX009 (ip), vehicle: saline with Tween-80
[11] = dose: 200.0 mg/kg/injection, schedule: Q04DX003 (ip), vehicle: saline with Tween-80
[12] = dose: 400.0 mg/kg/injection, schedule: Q04DX003 (ip), vehicle: saline with Tween-80
[13] = dose: 100.0 mg/kg/injection, schedule: Q01DX001 (ip), vehicle: carboxymethylcellulose (CMC)
[14] = dose: 200.0 mg/kg/injection, schedule: Q01DX001 (ip), vehicle: carboxymethylcellulose (CMC)
[15] = dose: 100.0 mg/kg/injection, schedule: Q04DX003 (ip), vehicle: Klucel (hydroxypropylcellulose) (HPC)
[16] = dose: 200.0 mg/kg/injection, schedule: Q04DX003 (ip), vehicle: Klucel (hydroxypropylcellulose) (HPC)
[17] = dose: 400.0 mg/kg/injection, schedule: Q04DX003 (ip), vehicle: Klucel (hydroxypropylcellulose) (HPC)
[18] = dose: 12.5 mg/kg/injection, schedule: Q01DX009 (ip), vehicle: saline
[19] = dose: 25.0 mg/kg/injection, schedule: Q01DX009 (ip), vehicle: saline
[20] = dose: 25.0 mg/kg/injection, schedule: Q04DX003 (ip), vehicle: saline
[21] = dose: 50.0 mg/kg/injection, schedule: Q01DX009 (ip), vehicle: saline
[22] = dose: 50.0 mg/kg/injection, schedule: Q04DX003 (ip), vehicle: saline
[23] = dose: 100.0 mg/kg/injection, schedule: Q04DX003 (ip), vehicle: saline
[24] = dose: 200.0 mg/kg/injection, schedule: Q01DX009 (ip), vehicle: saline
[25] = dose: 200.0 mg/kg/injection, schedule: Q04DX003 (ip), vehicle: saline

Measured: T/C

O=C=Nc1ccccc1-c1ccccc1
inactive: [1] 98 % of control | [2] 98 % of control | [3] 100 % of control

COC(=O)c1cc(C)cc(Oc2ccccc2[N+](=O)[O-])c1C
inactive: [4] 96 % of control | [5] 98 % of control | [6] 98 % of control

Clc1cccc(C[P+](c2ccccc2)(c2ccccc2)c2ccccc2)c1
inactive: dose: 1.5 mg/kg/injection, schedule: Q01DX009 (ip), vehicle: Klucel (hydroxypropylcellulose) (HPC) 91 % of control | dose: 3.0 mg/kg/injection, schedule: Q01DX009 (ip), vehicle: Klucel (hydroxypropylcellulose) (HPC) 94 % of control | dose: 6.0 mg/kg/injection, schedule: Q01DX009 (ip), vehicle: Klucel (hydroxypropylcellulose) (HPC) 88 % of control | dose: 12.5 mg/kg/injection, schedule: Q04DX003 (ip), vehicle: Klucel (hydroxypropylcellulose) (HPC) 98 % of control | dose: 25.0 mg/kg/injection, schedule: Q04DX003 (ip), vehicle: Klucel (hydroxypropylcellulose) (HPC) 98 % of control

Clc1nc2nc(Cl)n(Cl)c2nc1Cl
inactive: [7] 96 % of control | [8] 95 % of control | [9] 98 % of control | [10] 91 % of control | [11] 89 % of control | [12] 96 % of control

O=C(O)C1CC12c1ccccc1-c1ccccc12 (stereo unspecified)
inactive: [4] 92 % of control | [5] 95 % of control

CC(O)c1ccc2c(c1)Cc1ccccc1-2 (stereo unspecified)
inactive: dose: 50.0 mg/kg/injection, schedule: Q01DX001 (ip), vehicle: carboxymethylcellulose (CMC) 104 % of control | [13] 91 % of control | [14] 91 % of control | dose: 400.0 mg/kg/injection, schedule: Q01DX001 (ip), vehicle: carboxymethylcellulose (CMC) 91 % of control

CCCCCCCCCCOc1ccc(C=O)c(OC)c1
inactive: [15] 98 % of control | [16] 93 % of control | [17] 91 % of control

O=C(Nc1ccc(Cl)c(Cl)c1)SCCSC(=O)Nc1ccc(Cl)c(Cl)c1
inactive: dose: 100.0 mg/kg/injection, schedule: Q01DX001 (ip), vehicle: saline with Tween-80 107 % of control | dose: 200.0 mg/kg/injection, schedule: Q01DX001 (ip), vehicle: saline with Tween-80 92 % of control | dose: 400.0 mg/kg/injection, schedule: Q01DX001 (ip), vehicle: saline with Tween-80 93 % of control

CCCC(Cl)C(=O)Nc1cccc(OC(=O)NC)c1 (stereo unspecified)
inactive: [9] 95 % of control | [11] 93 % of control | [12] 102 % of control

COC(=O)c1cccc(F)c1C(=O)c1ccc2ccccc2c1
inactive: [15] 100 % of control | [16] 91 % of control | [17] 97 % of control

CN(C)C1CC1c1ccccc1 (stereo unspecified)
inactive: dose: 6.25 mg/kg/injection, schedule: Q01DX009 (ip), vehicle: saline 106 % of control | [18] 95 % of control | [19] 95 % of control | [20] 100 % of control | [21] 106 % of control | [22] 100 % of control | [23] 100 % of control

C/C=C\c1ccc(OCCOC(C)=O)c(OC)c1
inactive: [1] 97 % of control | [2] 97 % of control | [3] 93 % of control

CC(=O)Oc1c(Cl)cc(Cl)cc1Cl
inactive: [8] 107 % of control | [10] 100 % of control | dose: 400.0 mg/kg/injection, schedule: Q01DX009 (ip), vehicle: saline with Tween-80 100 % of control

Cc1ccc([N+](=O)[O-])c(O)c1[N+](=O)[O-]
inactive: dose: 100.0 mg/kg/injection, schedule: Q01DX009 (ip), vehicle: Klucel (hydroxypropylcellulose) (HPC) 104 % of control | [15] 102 % of control | dose: 200.0 mg/kg/injection, schedule: Q01DX009 (ip), vehicle: Klucel (hydroxypropylcellulose) (HPC) 93 % of control | [16] 89 % of control | [17] 102 % of control

O=C1NC(=O)C(=Cc2csc3ccccc23)C(=O)N1
inactive: [13] 94 % of control | [14] 96 % of control

CCN(CC)CCCC(C)Nc1nccc(/C=C/c2ccc(Cl)cc2)n1 (stereo unspecified)
inactive: [4] 96 % of control | [15] 90 % of control | [5] 105 % of control | [6] 100 % of control | [17] 94 % of control

O=C1OCC/C1=C/OCCCCCCO/C=C1/CCOC1=O
inactive: dose: 100.0 mg/kg/injection, schedule: Q04DX002 (ip), vehicle: Klucel (hydroxypropylcellulose) (HPC) 102 % of control | dose: 200.0 mg/kg/injection, schedule: Q04DX002 (ip), vehicle: Klucel (hydroxypropylcellulose) (HPC) 102 % of control | dose: 400.0 mg/kg/injection, schedule: Q04DX002 (ip), vehicle: Klucel (hydroxypropylcellulose) (HPC) 91 % of control

O=C1c2cccc(O)c2C(=O)c2c(O)cccc21
inactive: dose: 100.0 mg/kg/injection, schedule: Q01DX009 (ip), vehicle: saline 94 % of control | [23] 93 % of control | [24] 97 % of control | [25] 97 % of control | dose: 400.0 mg/kg/injection, schedule: Q01DX009 (ip), vehicle: saline 103 % of control | dose: 400.0 mg/kg/injection, schedule: Q04DX003 (ip), vehicle: saline 97 % of control

C=CCN(C(=O)OCC)P(=O)(OCC)OCC
inactive: [18] 102 % of control | dose: 12.5 mg/kg/injection, schedule: Q04DX003 (ip), vehicle: saline 106 % of control | [19] 112 % of control | [20] 106 % of control | [21] 112 % of control | [22] 105 % of control | [23] 112 % of control | [24] 112 % of control | [25] 98 % of control

CC(=O)Nc1nc(C=O)c(CCCCc2ccccc2)c(=O)[nH]1
inactive: dose: 80.0 mg/kg/injection, schedule: Q01DX001 (ip), vehicle: Klucel (hydroxypropylcellulose) (HPC) 102 % of control | dose: 160.0 mg/kg/injection, schedule: Q01DX001 (ip), vehicle: Klucel (hydroxypropylcellulose) (HPC) 107 % of control | dose: 320.0 mg/kg/injection, schedule: Q01DX001 (ip), vehicle: Klucel (hydroxypropylcellulose) (HPC) 107 % of control

COc1ccc(C(O)SP(=S)(OC)c2ccc(OC)cc2)cc1 (stereo unspecified)
inactive: [7] 100 % of control | [8] 100 % of control | [9] 92 % of control | [10] 95 % of control | [11] 88 % of control

— PubChem BioAssay AID248 (DTP/NCI, 2004)
